Results: ChEMBL document CHEMBL1201862, “PubChem BioAssay data set” (2004)
The source made the active and inactive calls.

Key:
[1] = target: T1, Corticotropin-releasing factor receptor 2/Corticotropin-releasing factor-binding protein (Homo sapiens, UniProt P24387+Q13324); assay: Dose Response confirmation of uHTS hits for small molecule antagonists of the CRF-binding protein and CRF-R2 receptor complex.; assay type: functional; conditions: read-out: IC50_Mean
T1 sequence (Q13324 whole entry): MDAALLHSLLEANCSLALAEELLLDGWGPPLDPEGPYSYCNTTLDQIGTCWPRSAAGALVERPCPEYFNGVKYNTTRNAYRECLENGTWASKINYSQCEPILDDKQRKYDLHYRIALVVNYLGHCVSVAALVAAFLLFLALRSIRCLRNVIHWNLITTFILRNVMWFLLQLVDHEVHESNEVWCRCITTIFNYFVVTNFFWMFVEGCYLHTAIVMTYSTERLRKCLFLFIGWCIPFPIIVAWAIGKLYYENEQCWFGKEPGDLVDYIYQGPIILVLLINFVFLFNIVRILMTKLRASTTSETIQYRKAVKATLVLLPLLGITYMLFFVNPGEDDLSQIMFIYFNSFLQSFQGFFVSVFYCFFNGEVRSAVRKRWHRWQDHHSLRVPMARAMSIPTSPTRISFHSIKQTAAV
T1 sequence (P24387 whole entry): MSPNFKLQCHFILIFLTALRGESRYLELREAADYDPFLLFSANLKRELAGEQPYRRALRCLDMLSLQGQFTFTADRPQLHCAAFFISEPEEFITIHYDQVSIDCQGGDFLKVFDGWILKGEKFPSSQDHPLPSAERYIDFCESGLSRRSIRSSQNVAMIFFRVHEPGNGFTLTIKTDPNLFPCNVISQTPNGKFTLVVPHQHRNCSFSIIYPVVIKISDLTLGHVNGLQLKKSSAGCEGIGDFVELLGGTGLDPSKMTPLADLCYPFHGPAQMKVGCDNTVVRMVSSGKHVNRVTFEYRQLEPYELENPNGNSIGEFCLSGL

[2] = target: T1, Corticotropin-releasing factor receptor 2/Corticotropin-releasing factor-binding protein; assay: activators of CRF receptor 2 with binding protein – uHTS hits, confirmation (AID 602473); assay type: functional; conditions: read-out: EC50_Mean
[3] = blockers of CRF-binding protein–CRF-R2 complex – cell-based, uHTS hits, 384-well, dose response (AID 651639); assay type: functional, Homo sapiens; conditions: read-out: IC50_Mean
[4] = bead-based luminescence quenchers, dual-tagged ARNT – biochemical, AlphaScreen, cherry-pick, artefact control for ARNT-TACC3 interaction inhibitor project, dose response (AID 651705); assay type: functional;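 further: AlphaScreen bead proximity signal that flags compounds interfering with the detection technology; potency reflects signal decrease which marks the compound as an assay artifact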
[5] = target: T2, Apoptotic protease-activating factor 1 (Homo sapiens, UniProt O14727); assay: SAR analysis of small molecule Activators of Apaf-1 in a Fluorescent assay.; assay type: functional; conditions: read-out: EC50_Mean
T2 sequence (O14727 whole entry): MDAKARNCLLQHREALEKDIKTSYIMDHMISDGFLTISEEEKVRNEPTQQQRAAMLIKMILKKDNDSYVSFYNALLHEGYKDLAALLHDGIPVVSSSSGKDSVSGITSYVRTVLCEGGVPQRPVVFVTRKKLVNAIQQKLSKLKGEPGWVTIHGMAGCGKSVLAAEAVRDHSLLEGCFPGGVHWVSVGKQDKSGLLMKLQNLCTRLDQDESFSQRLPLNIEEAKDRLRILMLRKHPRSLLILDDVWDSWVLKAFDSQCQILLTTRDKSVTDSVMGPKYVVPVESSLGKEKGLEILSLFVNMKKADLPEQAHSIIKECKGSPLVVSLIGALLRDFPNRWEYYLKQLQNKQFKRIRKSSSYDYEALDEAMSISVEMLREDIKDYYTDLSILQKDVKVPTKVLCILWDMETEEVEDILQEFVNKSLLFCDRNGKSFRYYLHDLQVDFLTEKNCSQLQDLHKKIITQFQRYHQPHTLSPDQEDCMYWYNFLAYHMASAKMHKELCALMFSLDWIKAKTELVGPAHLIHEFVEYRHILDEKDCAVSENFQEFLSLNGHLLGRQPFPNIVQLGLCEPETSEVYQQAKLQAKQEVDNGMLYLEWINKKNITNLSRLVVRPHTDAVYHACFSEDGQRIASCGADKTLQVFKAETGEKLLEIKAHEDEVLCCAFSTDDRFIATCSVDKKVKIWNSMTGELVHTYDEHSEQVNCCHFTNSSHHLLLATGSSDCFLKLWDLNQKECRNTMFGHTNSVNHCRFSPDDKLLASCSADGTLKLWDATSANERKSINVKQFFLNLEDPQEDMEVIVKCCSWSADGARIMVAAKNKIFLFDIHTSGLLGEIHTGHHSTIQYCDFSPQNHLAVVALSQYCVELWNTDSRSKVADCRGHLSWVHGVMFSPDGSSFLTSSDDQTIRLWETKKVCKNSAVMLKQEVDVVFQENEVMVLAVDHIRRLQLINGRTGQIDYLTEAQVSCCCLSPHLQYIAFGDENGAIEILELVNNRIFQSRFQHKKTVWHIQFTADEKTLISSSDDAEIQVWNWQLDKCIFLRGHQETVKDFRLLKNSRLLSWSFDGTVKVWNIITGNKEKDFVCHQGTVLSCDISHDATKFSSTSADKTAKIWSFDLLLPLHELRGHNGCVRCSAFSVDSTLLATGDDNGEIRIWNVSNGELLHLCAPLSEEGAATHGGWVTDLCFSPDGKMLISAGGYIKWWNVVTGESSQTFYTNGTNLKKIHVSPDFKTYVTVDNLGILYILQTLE

[6] = Luminescence Cell-Based Dose Retest to Confirm Inhibitors of Cancer Stem Cells. [Related pubchem assays (depositor defined):AID2717, AID2721]; assay type: functional; conditions: Homo sapiens
[7] = target: Protein Wnt-3a (Mus musculus, UniProt P27467); assay: antagonism of Wnt3a pathway luciferase reporter – Wnt-LIGHT cells, luminescence, selectivity assay for Gli-SUFU antagonist project, dose response (AID 651570); assay type: functional; conditions: read-out: IC50_Mean;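 further: Wnt-LIGHT reporter cells stimulated with conditioned medium from Wnt3a-producing cells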
[8] = target: T3, Sentrin-specific protease 8 (Homo sapiens, UniProt Q96LD8); assay type: functional
T3 sequence (Q96LD8 whole entry): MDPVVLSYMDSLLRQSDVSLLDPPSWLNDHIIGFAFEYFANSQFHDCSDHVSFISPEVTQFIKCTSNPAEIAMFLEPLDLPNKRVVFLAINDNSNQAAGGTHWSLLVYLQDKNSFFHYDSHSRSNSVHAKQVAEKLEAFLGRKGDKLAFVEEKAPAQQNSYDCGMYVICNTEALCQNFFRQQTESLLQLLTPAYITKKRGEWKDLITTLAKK

[9] = target: T3, Sentrin-specific protease 8; assay type: functional; remark: listed apart in the source
[10] = target: T4, Low molecular weight phosphotyrosine protein phosphatase (Homo sapiens, UniProt P24666); assay type: functional; conditions: read-out: IC50_Mean;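 further: Dose-response confirmation assay measuring inhibition of LMPTP enzyme activity by fluorescence intensity read-out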
T4 sequence (P24666 whole entry): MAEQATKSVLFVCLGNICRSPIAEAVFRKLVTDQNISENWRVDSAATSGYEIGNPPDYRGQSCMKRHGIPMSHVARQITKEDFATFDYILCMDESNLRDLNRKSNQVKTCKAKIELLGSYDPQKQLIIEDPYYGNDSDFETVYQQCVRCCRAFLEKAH

[11] = target: Induced myeloid leukemia cell differentiation protein Mcl-1 (Homo sapiens, UniProt Q07820); assay type: functional
[12] = target: Beta-lactamase (Pseudomonas aeruginosa, UniProt Q79MP6);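 further: biochemical dose-response test of metallo-beta-lactamase enzyme inhibition, read out by epi-absorbance; purified recombinant IMP-1 metallo-beta-lactamase with nitrocefin as substrate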
[13] = target: Beta-lactamase (Salmonella choleraesuis (strain SC-B67), UniProt Q5J463)
[14] = target: T2, Apoptotic protease-activating factor 1; assay type: functional
[15] = target: T5, Zinc finger protein mex-5 (Caenorhabditis elegans, UniProt Q9XUB2); assay: potency of MEX-5 RNA-binding blockers – biochemical, C. elegans, fluorescence polarization, dose response (AID 1960)
T5 sequence (Q9XUB2 whole entry): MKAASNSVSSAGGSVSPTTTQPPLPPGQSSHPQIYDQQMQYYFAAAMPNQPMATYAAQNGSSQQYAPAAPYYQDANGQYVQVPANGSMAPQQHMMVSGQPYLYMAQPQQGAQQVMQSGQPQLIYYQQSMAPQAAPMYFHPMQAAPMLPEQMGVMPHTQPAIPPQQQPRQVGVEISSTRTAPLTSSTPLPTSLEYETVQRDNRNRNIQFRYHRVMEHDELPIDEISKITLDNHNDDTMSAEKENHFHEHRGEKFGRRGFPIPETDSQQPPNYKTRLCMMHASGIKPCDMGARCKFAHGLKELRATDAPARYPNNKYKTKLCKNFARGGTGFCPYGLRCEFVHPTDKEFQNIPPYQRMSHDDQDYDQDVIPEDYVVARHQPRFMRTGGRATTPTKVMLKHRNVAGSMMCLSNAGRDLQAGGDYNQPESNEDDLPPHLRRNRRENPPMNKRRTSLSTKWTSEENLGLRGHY

[16] = target: T6, RNA-binding protein pos-1 (Caenorhabditis elegans, UniProt G5EF15); assay: disruptors of C. elegans POS-1 RNA interaction – biochemical, fluorescence polarization, dose response (AID 1964);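 further: purified POS-1 fused to maltose binding protein made in E. coli; potency of compounds blocking POS-1 binding to fluorescent RNA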
T6 sequence (G5EF15 whole entry): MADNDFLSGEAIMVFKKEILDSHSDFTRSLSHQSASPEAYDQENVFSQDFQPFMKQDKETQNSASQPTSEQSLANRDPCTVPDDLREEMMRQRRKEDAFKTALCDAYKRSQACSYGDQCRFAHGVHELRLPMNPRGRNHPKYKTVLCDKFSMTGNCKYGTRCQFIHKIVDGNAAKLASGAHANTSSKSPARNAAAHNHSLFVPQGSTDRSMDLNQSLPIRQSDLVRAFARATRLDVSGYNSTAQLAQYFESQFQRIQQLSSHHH

[17] = non-specific 3'UTR reporter inhibition in Clone20-Shn3RL – cell-based, Renilla luciferase, cherry-picked, counter-screen for Shn3 inhibitor project, dose response (AID 624133); assay type: functional
[18] = loss of viability in HepG2 cells – cell-based, CellTiter-Glo, cherry-picked, cytotoxicity control for Shn3 inhibitor project, dose response (AID 624134); assay type: functional
[19] = reduction of Shn3 3'UTR-driven luciferase in osteoblasts – cell-based, Clone20 osteoblasts, firefly luciferase, cherry-picked, dose response (AID 624132); assay type: functional;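 further: firefly luciferase luminescence from reporter carrying the Shn3 3'UTR in osteoblasts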
[20] = viability loss in HeLa cells – cytotoxicity control for MgcRacGAP inhibitor project, dose response (AID 624300); assay type: functional
[21] = target: T7, Rac GTPase-activating protein 1 (Homo sapiens, UniProt Q9H0H5); assay: blockers of MgcRacGAP-driven Rac1 GTP hydrolysis – biochemical, ADP Hunter fluorescence, primary and confirmatory, confirmation (AID 624330); assay type: functional
T7 sequence (Q9H0H5 whole entry): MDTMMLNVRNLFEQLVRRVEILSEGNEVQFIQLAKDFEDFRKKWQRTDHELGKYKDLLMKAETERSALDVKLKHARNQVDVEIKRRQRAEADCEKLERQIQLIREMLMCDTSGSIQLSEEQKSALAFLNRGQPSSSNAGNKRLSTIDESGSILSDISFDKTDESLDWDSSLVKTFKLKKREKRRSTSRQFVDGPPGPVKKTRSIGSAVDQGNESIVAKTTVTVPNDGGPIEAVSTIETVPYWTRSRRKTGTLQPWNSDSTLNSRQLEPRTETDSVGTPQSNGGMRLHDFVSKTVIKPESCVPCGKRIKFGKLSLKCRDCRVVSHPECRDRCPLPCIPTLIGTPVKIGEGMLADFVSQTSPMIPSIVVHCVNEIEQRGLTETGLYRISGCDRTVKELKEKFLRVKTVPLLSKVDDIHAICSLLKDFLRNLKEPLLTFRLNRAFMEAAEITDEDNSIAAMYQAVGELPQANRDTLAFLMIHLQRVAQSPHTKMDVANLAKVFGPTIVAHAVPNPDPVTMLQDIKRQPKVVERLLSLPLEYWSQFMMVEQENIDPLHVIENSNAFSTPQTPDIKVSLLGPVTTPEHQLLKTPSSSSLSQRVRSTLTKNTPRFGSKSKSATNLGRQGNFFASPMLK

Sequence of Beta-lactamase (Salmonella choleraesuis (strain SC-B67), UniProt Q5J463) (Q5J463 whole entry): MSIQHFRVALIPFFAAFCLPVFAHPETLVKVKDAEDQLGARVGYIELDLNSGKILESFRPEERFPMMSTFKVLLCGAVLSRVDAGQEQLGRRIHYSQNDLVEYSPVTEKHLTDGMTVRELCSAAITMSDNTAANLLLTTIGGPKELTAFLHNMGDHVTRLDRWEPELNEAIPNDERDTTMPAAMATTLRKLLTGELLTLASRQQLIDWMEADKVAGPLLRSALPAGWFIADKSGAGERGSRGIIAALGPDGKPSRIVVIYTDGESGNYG
Sequence of Protein Wnt-3a (P27467 whole entry): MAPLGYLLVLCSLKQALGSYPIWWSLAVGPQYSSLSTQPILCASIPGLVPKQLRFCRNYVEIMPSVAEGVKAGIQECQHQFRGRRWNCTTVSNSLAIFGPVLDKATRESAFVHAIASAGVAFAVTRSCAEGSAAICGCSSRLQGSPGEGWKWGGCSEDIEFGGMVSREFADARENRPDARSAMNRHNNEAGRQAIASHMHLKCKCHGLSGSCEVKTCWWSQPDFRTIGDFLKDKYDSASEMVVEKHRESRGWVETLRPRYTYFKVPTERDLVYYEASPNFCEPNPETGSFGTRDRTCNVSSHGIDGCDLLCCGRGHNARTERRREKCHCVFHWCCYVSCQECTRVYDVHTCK
Sequence of Beta-lactamase (Pseudomonas aeruginosa, UniProt Q79MP6) (Q79MP6 whole entry): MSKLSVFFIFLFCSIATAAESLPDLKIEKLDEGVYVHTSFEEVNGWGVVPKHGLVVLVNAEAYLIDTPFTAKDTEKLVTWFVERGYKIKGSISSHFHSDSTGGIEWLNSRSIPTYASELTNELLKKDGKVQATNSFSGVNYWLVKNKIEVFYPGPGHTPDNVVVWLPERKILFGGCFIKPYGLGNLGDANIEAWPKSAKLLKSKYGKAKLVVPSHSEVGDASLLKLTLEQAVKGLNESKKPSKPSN
Sequence of Induced myeloid leukemia cell differentiation protein Mcl-1 (Q07820 whole entry): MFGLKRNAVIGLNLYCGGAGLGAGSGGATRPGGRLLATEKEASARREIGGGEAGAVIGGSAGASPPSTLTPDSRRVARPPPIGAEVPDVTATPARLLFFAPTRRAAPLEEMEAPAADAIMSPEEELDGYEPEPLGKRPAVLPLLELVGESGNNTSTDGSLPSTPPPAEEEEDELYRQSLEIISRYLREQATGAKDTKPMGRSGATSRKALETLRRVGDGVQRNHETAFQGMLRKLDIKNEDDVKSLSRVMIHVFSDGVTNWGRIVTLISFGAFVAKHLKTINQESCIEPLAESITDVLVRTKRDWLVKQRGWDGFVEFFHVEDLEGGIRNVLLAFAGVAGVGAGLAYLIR

O=c1c([N+](=O)[O-])c(NC2CCCCC2)c2ccccc2n1-c1ccccc1
IC50 [1]: 4.33 µM (active)
EC50 [2]: > 53 µM (inactive)
IC50 [3]: > 20 µM (inactive)

Nc1nc(O)nc(Nc2ccccc2)c1N=O
AC50 [4]: 111 µM (active)

COc1ccc(C2=N[C@H](C(=O)O)CO2)cc1C(F)(F)F
EC50 [5]: > 100 µM (inactive)

N#Cc1c(O)nc(SCc2cccc(Cl)c2)nc1-c1ccccc1
IC50 [1]: < 0.368 µM (active)
AC50 [6]: 4.86 µM (active)
EC50 [2]: > 53 µM (inactive)
IC50 [3]: > 20 µM (inactive)

COc1ccc(CN(C)Cc2nc(Cc3cccc(F)c3)no2)c2cccnc12
IC50 [7]: 2.18 µM (active)

Nc1ccc(Cc2ccc(N)c(O)c2)cc1O
IC50 [8]: > 100 µM (inactive)
IC50 [9]: 27 µM (active)
IC50 [10]: 26.7 µM (inactive)
IC50 [11]: > 54 µM (active)

O=P(O)(O)c1cc(-c2ccccc2)oc1-c1ccccc1
IC50 [12]: 22.5 µM (inactive)
IC50 [13]: > 59.6 µM (inactive)

O=Cc1ccc2cccc3c2c1NC(C(F)(F)F)=N3
IC50 [14]: 9.2 µM (active)
EC50 [15]: 24.8 µM (active)
EC50 [16]: 27.6 µM (active)
IC50 [12]: 32.6 µM (inactive)
IC50 [13]: 27.9 µM (inactive)

COc1ccc(CNCC(O)COc2cccc3c2OC(C)(C)C3)cc1 (stereo not drawn)
AC50 [17]: 1.57 µM (active)
AC50 [18]: 49.4 µM (active)
IC50 [7]: 3.22 µM (active)
AC50 [19]: 1.68 µM (active)

C=CCc1c(C)nc(-c2ccccc2)nc1Nc1ccc(O)cc1
CC50 [20]: 100 µM (active)
IC50 [21]: 38.1 µM (active)

CC(CC(F)(F)F)C(=O)O (stereo not drawn)
EC50 [5]: > 100 µM (inactive)
